Here are results for 51 substances from publication PMC8769072, “Proteome‐scale mapping of binding sites in the unstructured regions of the human proteome” (Molecular Systems Biology, 2022).

The assay relates to immobilized GST-tagged bait protein domains. The assay can be described thus: ProP-PD phage selections (HD2 P8, sublibraries, HD2 P3, HD1 P8) with NGS and confidence level. The format is binding, human.
The mark [1] stands for this setting: library HD2, bait WDR5_WD_1234567_P61964_21_334, validated benchmark motif instance, in_library_check TRUE, TRUE/FALSE = instance recovered in ProP-PD selection.
[2] abbreviates: library HD2, bait TSG101_UEV__Q99816_1_145, validated benchmark motif instance, in_library_check TRUE, TRUE/FALSE = instance recovered in ProP-PD selection.
Where [3] appears, read: library HD2, bait VASP_EVH1__P50552_1_114, validated benchmark motif instance, in_library_check TRUE, TRUE/FALSE = instance recovered in ProP-PD selection.
[4] abbreviates: HD2 library, bait TNKS_TANK-peptide-bind__O95271_174_649, known motif instance of the benchmarking set found (TRUE) or not found (FALSE) among selected peptides.
[5] abbreviates: library HD2, bait EPS15_EH__P42566_121_215, best matching peptide.
Setting [6] is: library HD2, bait EPS15_EH__P42566_121_215, confidence level of best matching peptide (4 High, 2-3 Medium, 1 Low).
[7] abbreviates: library HD2, bait EPS15_EH__P42566_121_215, whether the validated benchmark motif instance was recovered in the ProP-PD selection (TRUE/FALSE).
The mark [8] stands for this setting: library HD2, bait USP7_MATH-TRAF__Q93009_53_206, validated benchmark motif instance, in_library_check TRUE, TRUE/FALSE = instance recovered in ProP-PD selection.
Setting [9] is: bait KPNA4_Arm (O00629 68-487), HD2 library, benchmark motif instance recovered in the ProP-PD selection (TRUE/FALSE).
Setting [10] is: HD2 library, bait CALM1_EF-hand__P0DP23_2_149, benchmark motif instance, in_library_check FALSE, in_library_coverage 0.
[11] abbreviates: bait PEX14_Pex14__O75381_16_84, HD2 library, whether the validated benchmark motif instance was recovered in the ProP-PD selection (TRUE/FALSE).
Setting [12] is: bait ANKRA2_Ank__Q9H9E1_142_313, library HD2, benchmarking set of validated motif instances, TRUE = motif instance recovered in the ProP-PD selection.
Setting [13] is: bait CALM1_EF-hand__P0DP23_2_149, library HD2, benchmarking set of validated motif instances, TRUE = motif instance recovered in the ProP-PD selection.
Where [14] appears, read: HD2 library, bait TLN1_PTB__Q9Y490_309_401, known motif instance of the benchmarking set found (TRUE) or not found (FALSE) among selected peptides.
Where [15] appears, read: bait CRK_SH3_1_P46108_124_198, HD2 P3 library, confidence level (4 = High, 2-3 = Medium, 1 = Low).
The mark [16] stands for this setting: bait CRK_SH3_1_P46108_124_198, HD2 P3 library, mean NGS counts over replicate selections.
Setting [17] is: bait CRK_SH3_1_P46108_124_198, HD2 P3 library, mean proportion of NGS counts.

For PPGPPPPYHAHAHLHH, the HD confidence (bait YAP1_WW_1_P46937_169_207, library HD) is 3. Besides, the p3_HD2 confidence (bait YAP1_WW_1_P46937_169_207, library HD2 P3) was 2. This substance also showed a p3_HD2 count proportions (bait YAP1_WW_1_P46937_169_207, library HD2 P3, mean normalised NGS counts) of 0.001797. Besides, where the note is “bait YAP1_WW_1_P46937_169_207, library HD2 P3, mean raw NGS counts, all selections”, the p3_HD2 mean counts is listed as 44.67. This substance also had an HD2 confidence (bait YAP1_WW_1_P46937_169_207, library HD2 P8) of 4. The HD2_nucleus confidence (bait YAP1_WW_1_P46937_169_207, library HD2 P8 nucleus) was determined as 4. The HD count proportions (bait YAP1_WW_1_P46937_169_207, library HD, mean normalised NGS counts) stood at 0.02186. Besides, under “bait YAP1_WW_1_P46937_169_207, library HD, mean raw NGS counts, all selections”, the HD mean counts came out at 187.3.
In the case of PPLNPHGAARAEVYLRKCTFD, the motif_found entry under setting [1] is on record as “FALSE”.
Same read-out and setting: for PPLNPHGSARAEVHLRKSAFD the value was “FALSE”.
Consider PPMGEVVTPTAPQEPPESVR, for which the motif_found entry under setting [2] is “FALSE”.
With PPPEDFPLPPPPLAGDGDD, the motif_found result under setting [3] is on record as “FALSE”.
On the same count and under the same terms, for PPPIEESFPPAPLEEEIFP the value was “FALSE”; for PPPPPEDFPLPPPPLAGDG, “FALSE”.
With PPRLPELAPTAPLPYPAPEA, the motif_found result (HD2 library, bait TSG101_UEV__Q99816_1_145, known motif instance of the benchmarking set found (TRUE) or not found (FALSE) among selected peptides) was “FALSE”.
For PQLPHLQRSPPDGQSF, where the note is “HD2 library, bait TNKS_TANK-peptide-bind__O95271_174_649, best matching selected peptide”, the best_specificity amounted to 1. Under “HD2 library, bait TNKS_TANK-peptide-bind__O95271_174_649, confidence level of best matching selected peptide”, this substance had a best_confidence of 2. In addition, under setting [4], the motif_found entry is reported as “TRUE”.
PQPKLPYLPTFPFSMP yielded an HD2 confidence (bait ANKRA2_Ank__Q9H9E1_142_313, HD2 P8 selection, confidence level -4 to 4: 4 = High, 3 or 2 = Medium, 1 = Low, 0 = Filtered/Noise) of 2.
Take PQYLNPFDEPEAFVTI: the best_specificity under setting [5] worked out at 1. The same substance displayed a best_confidence under setting [6] of 2. In addition, under setting [7], the motif_found result is on record as “TRUE”.
On to PREHQTGSARSEGYYPISKKE, for which the motif_found entry under setting [1] was “FALSE”.
On to PSENSNEFEWEDDLPKPKTTEVIR, for which, for the setting “library HD2, bait KLC1_TPR__Q07866_203_497, whether the validated benchmark motif instance was recovered in the ProP-PD selection (TRUE/FALSE)”, the motif_found result is reported as “FALSE”.
In the case of PSNPDLDAGVSEHSGDWLD, the motif_found entry under setting [8] is reported as “FALSE”.
Take PSTNPFVAAAGPSVAS: under setting [5], the best_specificity turned out to be 1. Moreover, the best_confidence under setting [6] is listed as 2. Under setting [7], the motif_found entry is listed as “TRUE”.
Consider PSTRKDYPAAKRVKLDSVRVLR, for which, under setting [9], the motif_found result is “FALSE”.
For the substance PVLEKDDLMDMDASQQNLF [HIP1], the motif_found result (bait CLTC_Clathrin-propeller__Q00610_1_364, library HD2, benchmarking set of validated motif instances, TRUE = motif instance recovered in the ProP-PD selection) is “FALSE”.
Regarding PYGDDMTVRKQPEGNPKPDIIE, the motif_found entry under setting [4] was “FALSE”.
QASALSFPAPPSRPLPPDPV [ADAM15]: the motif_found entry (bait CRK_SH3_1_P46108_124_198, library HD2, benchmarking set of validated motif instances, TRUE = motif instance recovered in the ProP-PD selection) is reported as “FALSE”.
For “QDLLELKSVIKLQAWWRGTMIRR,DLLELKSVIKLQAWWRGTMIRREIGGFKMPK [IQCG 397-411]”, the motif_found result under setting [10] was “FALSE”.
In the case of QDYNETDWSQEFISEVTDP, under setting [11], the motif_found result is “FALSE”.
Consider QELLSVGSKRRRTGGSLRGN, for which, under setting [9], the motif_found entry was “FALSE”.
For QELQEEKPSSSHLVSRPST, under setting [8], the motif_found result is reported as “FALSE”.
As for QENMRSSPNPFITGLTRTN, the motif_found entry under setting [7] was “FALSE”.
With QEPPESVRPSAPPAELEVQA, under setting [2], the motif_found entry was “FALSE”.
QERPLTNKLKRKRRPTSGLHPE: the motif_found result under setting [9] is recorded as “FALSE”.
On to QFSLYTSPSLPNISLGLQATVTVT [HDAC5], for which the motif_found entry under setting [12] was “TRUE”.
As for QGSWVELHFSNNGNGG, the motif_found result is “TRUE” (bait MAP1LC3A_ATG8 (Q9H492 2-121), HD2 library, benchmark motif instance recovered in the ProP-PD selection (TRUE/FALSE)) and “TRUE” (bait MAP1LC3B_ATG8 (Q9GZQ8 2-119), HD2 library, benchmark motif instance recovered in the ProP-PD selection (TRUE/FALSE)). The substance also returned a best_confidence (bait MAP1LC3A_ATG8 (Q9H492 2-121), HD2 library, confidence level (1-4) of best matching peptide) of 3 and a best_confidence (bait MAP1LC3B_ATG8 (Q9GZQ8 2-119), HD2 library, confidence level (1-4) of best matching peptide) of 3. Also, the best_specificity reads like this: (bait MAP1LC3A_ATG8 (Q9H492 2-121), HD2 library, specificity score of best matching peptide) 1; (bait MAP1LC3B_ATG8 (Q9GZQ8 2-119), HD2 library, specificity score of best matching peptide) 1.
As to QLSPNAKEFVYNGGGS, the best_confidence (bait PABP-B_PABP__P11940_544_623, HD2 library, confidence level (1-4) of best matching selected peptide) turned out to be 4. Besides, the best_specificity (bait PABP-B_PABP__P11940_544_623, HD2 library, specificity score of best matching selected peptide) was 1. Further, the motif_found result (bait PABP-B_PABP__P11940_544_623, HD2 library, whether the validated benchmark motif instance was recovered in the ProP-PD selection (TRUE/FALSE)) was “TRUE”.
Consider QMPADTPPPAYLPPEDPM, for which the motif_found entry (bait NEDD4_WW_4 (P46934 890-928), HD2 library, benchmark motif instance recovered in the ProP-PD selection (TRUE/FALSE)) is given as “FALSE”.
QQGTSDAWVDQFTRPVNTS: the motif_found entry under setting [11] is recorded as “FALSE”.
For QQHEGPSLNPFDEEDLSSP, the motif_found entry under setting [7] is listed as “FALSE”.
On to “QQKQRQKHFNRQIPAAASLIQTAWRCYAAENPDSSTWKIYIRKAPRSHTLLSPSPKPKKSVVVKKKKFKLDKDNGVTPGEKMLTVPHITCDPPEERRLDHFSVDGYDSSVRKSPTLLEVSMPHFMRTNSFAEDLDLEGETLLTPITHISQLREHHRATIKVIRRMQYFVAKKKFQQARKP [KCNQ1]”, for which the motif_found result under setting [13] is “FALSE”.
Regarding QQQLNWKQDSNPLYKSAITTTI, under setting [14], the motif_found entry is recorded as “FALSE”.
As for QQVPAPPLPAKKNLPT, under setting [15], the p3_HD2 confidence worked out at 4. This substance also registered a p3_HD2 mean counts under setting [16] of 120.7. Under setting [17], the p3_HD2 count proportions is recorded as 0.00436.
For the substance QRTNPSPTNPFSSDLQKTF, the motif_found result under setting [7] was “FALSE”.
Turning to QSGSGGIFPPPPDDDIYDG, under setting [3], the motif_found entry was “FALSE”.
Substance QSKPLVDIDLISFDDD returned an HD2_nc confidence (bait CLTC_Clathrin-propeller__Q00610_1_364, HD2 P8 nucleocytoplasmic sublibrary, confidence level (4 = High, 2-3 = Medium, 1 = Low)) of 4. For the setting “bait CLTC_Clathrin-propeller__Q00610_1_364, HD2 P8 nucleocytoplasmic sublibrary, mean NGS counts over replicate selections”, this substance displayed an HD2_nc mean counts of 25.67. Under “bait CLTC_Clathrin-propeller__Q00610_1_364, HD2 P8 nucleocytoplasmic sublibrary, mean proportion of NGS counts”, this substance yielded an HD2_nc count proportions of 0.0005729.
With RARAKWDTANNPLYKEATSTFT, under setting [14], the motif_found result is “FALSE”.
For the substance RCTSPGGSYGHLSIGTMSPSLG, the motif_found result (bait SUFU_SUFU__Q9UMX1_1_484, HD2 library, whether the validated benchmark motif instance was recovered in the ProP-PD selection (TRUE/FALSE)) is listed as “FALSE”.
On to RCVNSRQIRPPPDGSDCTSDLA [RAD54L 690-697], for which the motif_found entry (HD2 library, bait TNKS_TANK-peptide-bind__O95271_174_649, benchmark motif instance, in_library_check FALSE, in_library_coverage 0) is on record as “FALSE”.
RDAEAHPWLSDYDDLTSAT: the motif_found result under setting [11] is on record as “FALSE”.
As to “REMEEKSALIIQKHWRGYRERKNFHQQRQSL [IQCB1 391-407]”, the motif_found entry under setting [10] is recorded as “FALSE”.
Take RGRGDGQE: the motif_found entry under setting [4] was “FALSE”.
RHLPPPLPSKTPPPPP yielded a p3_HD2 confidence under setting [15] of 3. Moreover, under setting [16], the p3_HD2 mean counts amounted to 27.0. This substance showed a p3_HD2 count proportions under setting [17] of 0.0009618.
Consider “RKKWKQSVRLISLCQRLSR,KWKQSVRLISLCQRLS [DAPK1]”, for which the motif_found result under setting [13] is “FALSE”.
As to RKNTKSMNFDNPVYRKTTEEED [LRP8 860-867], the motif_found entry (HD2 library, bait TLN1_PTB__Q9Y490_309_401, benchmark motif instance, in_library_check FALSE, in_library_coverage 0) is listed as “FALSE”.
For the substance “RKQEEVSAIIIQRAYRRYLLKQKVKKVSSIY [SCN2A 1909-1925]”, the motif_found entry under setting [10] is on record as “FALSE”.
Take “RKQYRKVLYCVVIIQKNYRAFLLRRRFLHLKKAA [MYO10 766-785]”: under setting [10], the motif_found entry was “FALSE”.
In the case of RKRAKV, the motif_found entry under setting [9] is listed as “FALSE”.
Consider RKTLVSMPPLPGLDLKGSESPE [RFX5], for which the motif_found result under setting [12] is “FALSE”.
